# Results from patent US20190175528A1, “INHIBITION OF BIOFILM ORGANISMS” (NovaBiotics Limited, priority 2009, published 2019).
# Ends that are not written are not given here.
# Experiments:
# [1] = tested on: P. aeruginosa strains (7); assay: microbe, parasite or virus in culture; type: cell-based, Pseudomonas aeruginosa; conditions: agent alone; range over strains
# Method: (§1) The bacterial inoculum was established by the dilution method from actively-growing cultures in Mueller-Hinton broth, standardized with 0.5 McFarland turbidity standard as described in the CLSI method M26-A.
# (§2) To determine the prevention of biofilm formation, both the bacterial inoculum and the antimicrobial agents were added simultaneously to the plates. The plates were incubated at 37° C. for 24 h and the optical density was read at 625 nm on a microtitre plate reader (BioTek Powerwave XS, Winooski, USA). The MIC was obtained as the lowest concentration of antimicrobial showing total inhibition of bacterial growth.
# (§3) The FIC corresponds to an interaction coefficient indicating whether the combination of antimicrobial agents is synergistic, additive, antagonist or neutral. The FIC is determined by comparing the activity of an agent in combination (MIC of agent A+agent B) with the activity of the agent alone (MIC of agent A or agent B) as follow (Singh et al., 2000):
# (§4) FIC=MICA[combination]/MICA[alone]+MICB[combination]/MICB[alone]
# (§5) Additive combinations of two antimicrobial agents are indicated by a FIC index of 1, whereas a FIC index <1 indicates synergistic combinations. Neutral combinations would give a FIC between 1 and 4, a FIC index higher than 4 indicates antagonist effects between the two antimicrobial agents.
# (§6) Summary of the activity of the tested antimicrobial agents against the Gram-negative P. aeruginosa strains and the Gram-positive Staphylococcus spp. The number into brackets indicates the maximum number of strains tested. MIC: minimum inhibition concentration; MBEC: minimum biofilm eradication concentration; FIC: fractional inhibitory concentration.
# [2] = tested on: P. aeruginosa strains (7) persister cells; assay: Persister cells in biofilms (live/dead staining), summary over strains; type: cell-based, Pseudomonas aeruginosa; conditions: agent alone
# Method: (§7) Following transfer of the supernatant from the challenge plates, the biofilms were rinsed once with sterile PBS (lx) and 100 μl of BacLight live/dead fluorescent staining solution (Invitrogen, Paisley, UK) containing 4 μM SYTO9 and 20 μM propidium iodide (PI) in sterile PBS (lx) were added to the wells of the challenge plates. The plates were incubated at room temperature in the dark for 15 min and the fluorescence was read at 485(ex)/528(em) and 485(ex)/645(em) for SYTO9 and PI fluorescence, respectively on a fluorescence microtitre plate reader (BioTek Synergy HT, Winooski, USA) with the sensitivity set at 50 and bottom optics position was selected. Direct observation of the biofilms with an Axiovert 40 fluorescence microscope (Zeiss, Gottingen, Germany) allowed identifying the presence of live and dead bacteria and pictures of the biofilms were taken at 100 to 400-fold magnification.
# (§8) The relative viability of persister cells was determined by the live/dead fluorescence measurements ratio and microscopic observations were used to confirm the presence or absence of live cells.
# as §6
# [3] = tested on: P. aeruginosa ATCC BAA-47 (PAO1) persister cells; assay: Relative viability of persister cells (SYTO9/PI live/dead fluorescence, microscopy); type: cell-based, Pseudomonas aeruginosa; conditions: agent alone; FIG. 6, FIG. 8
# Method: as §7, §8
# The activity of NP108 and cysteamine against the persister cells was assessed using a fluorescence staining method to determine the relative viability of the cells. The nucleic acid-binding fluorescent molecules used were SYTO9 and PI, which penetrate all bacterial cells (green fluorescence) and membrane-disrupted cells (red fluorescence), respectively.
# [4] = tested on: Staphylococcus spp (4) biofilm cells; type: cell-based
# Method: (§9) The FIC was also calculated to assess the interaction of two antimicrobial agents in combination against bacterial biofilms. The same formulae applied, using MBEC instead of MIC.
# (§10) A total volume of 100 μl bacterial inoculum in Mueller-Hinton was added to each well of 96-well plates (challenge plates) and the plates were incubated at 37° C. for 24 h on a gyrorotary shaking platform (Grant-bio PS-3D, Shepreth, England) at 24 rpm to allow for biofilm formation.
# (§11) The challenge plates were then rinsed once with sterile PBS (lx) and two-fold serial dilutions of antimicrobial agents in Mueller-Hinton were added to the challenge plates. The challenge plates were incubated at 37° C. for 24 h on a gyrorotary shaking platform (Grant-bio PS-3D, Shepreth, England) at 24 rpm.
# (§12) The supernatants from each of the challenge plates were transferred into fresh plates and the optical density was measured at 625 nm on a microtitre plate reader (BioTek Powerwave XS, Winooski, USA). The MBEC was obtained by the lowest concentration of antimicrobial showing no bacterial growth.
# as §6
# [5] = tested on: P. aeruginosa strains (7) biofilm cells; type: cell-based, Pseudomonas aeruginosa; conditions: agent alone
# Method: as §9, §10, §11, §12, §6
# Staphylococcus spp (4) = assay: microbe, parasite or virus in culture; type: cell-based; conditions: agent alone; range over strains
# Method: as §1, §2, §3, §4, §5, §6
# [6] = tested on: P. aeruginosa ATCC BAA-47 (PAO1) biofilm cells; assay: MBEC against 24 h-old biofilm; type: cell-based, Pseudomonas aeruginosa; conditions: agent alone; FIG. 5
# Method: as §9, §10, §11, §12
# The assessment of the activity of NP108 and cysteamine against bacterial biofilms was carried out with 24 h-old biofilms and the activity of both compounds in combination was also determined. The activity of the antimicrobial agents against bacterial biofilms was determined by their activity against the biofilm cells and against the persister cells.
# P. aeruginosa DSMZ1299 [7] = conditions: DSMZ1299, pH 7
# [8] = tested on: P. aeruginosa ATCC BAA-47; conditions: for MBC at pH5.5, P. aeruginosa ATCCBAA-47 / MBC pH5.5, 320 mM NaCl, P. aeruginosa ATCCBAA-47: ATCC BAA-47, pH 5.5; for MBC following MIC at pH 7, P. aeruginosa ATCCBAA-47: ATCC BAA-47, pH 7
# S. aureus ATCC25923 [9] = type: cell-based, Staphylococcus aureus; conditions: ATCC25923, 24 h
# Method: as §1, §2
# [10] = tested on: P. aeruginosa ATCC BAA-47; assay: microbe, parasite or virus in culture; type: cell-based, Pseudomonas aeruginosa; conditions: ATCC BAA-47, 24 h; for MIC pH5.5, 320 mM NaCl, P. aeruginosa ATCCBAA-47 / MIC pH5.5, P. aeruginosa ATCCBAA-47: pH 5.5
# Method: as §1
# as §2, with “growth. […]” for “growth.”
# (§13) FIC=MICA[combination]/MICA[alone]+MICB[combination]/MICB[alone] […]
# (§14) In order to assess for the prevention of biofilm formation by both Gram-positive and Gram-negative bacteria, the bacterial inoculum and antimicrobial agents were added simultaneously in the plates. The range of concentrations of antimicrobial agents was 0-500 μg/ml NP108 and 0-320 μg/ml cysteamine against the Gram-negative bacteria P. aeruginosa ATCC BAA-47 and 0-1000 μg/ml NP108 and 0-320 μg/ml cysteamine against the Gram-positive MRSA.
# P. aeruginosa DSMZ1128 [11] = conditions: DSMZ1128, pH 7
# [12] = tested on: S. aureus DSM 11729 (MRSA); assay: microbe, parasite or virus in culture; type: cell-based, Staphylococcus aureus; conditions: DSM 11729, 24 h; for MIC pH5.5, 320 mM NaCl, S. aureus 11729 / MIC pH5.5, S. aureus 11729: pH 5.5
# Method: as §1
# as §2, with “growth. […]” for “growth.”
# as §13, §14
# S. epidermidis ATCC12228 [13] = conditions: ATCC12228, pH 7
# P. aeruginosa DSMZ1128 [14] = type: cell-based, Pseudomonas aeruginosa; conditions: DSMZ1128, 24 h
# Method: as §1, §2
# P. aeruginosa DSMZ1299 [15] = type: cell-based, Pseudomonas aeruginosa; conditions: for MIC at pH 7, P. aeruginosa D5MZ1299: DSMZ1299, 24 h
# Method: as §1, §2
# S. epidermidis ATCC12228 [16] = type: cell-based, Staphylococcus epidermidis; conditions: ATCC12228, 24 h
# Method: as §1, §2
# [17] = tested on: S. aureus DSM 11729 (MRSA); conditions: for MBC at pH5.5, S. aureus 11729 / MBC pH5.5, 320 mM NaCl, S. aureus 11729: DSM 11729, pH 5.5; for MBC following MIC at pH 7, S. aureus DSMZ11729: DSM 11729, pH 7
# S. aureus ATCC25923 [18] = conditions: ATCC25923, pH 7
Molecule,"MBC following MIC at pH 7, P. aeruginosa DSMZ1299 (P. aeruginosa DSMZ1299 [7])","MBC at pH5.5, P. aeruginosa ATCCBAA-47 [8] [μg/ml]","MBC pH5.5, 320 mM NaCl, P. aeruginosa ATCCBAA-47 [8] [μg/ml]","MBC following MIC at pH 7, P. aeruginosa ATCCBAA-47 [8] [μg/ml]","MIC at pH 7, S. aureus ATCC25923 (S. aureus ATCC25923 [9]) [μg/ml]","MIC pH5.5, 320 mM NaCl, P. aeruginosa ATCCBAA-47 [10] [μg/ml]","MIC pH5.5, P. aeruginosa ATCCBAA-47 [10] [μg/ml]","MIC at pH 7, P. aeruginosa ATCCBAA-47 [10] [μg/ml]","MBC following MIC at pH 7, P. aeruginosa DSMZ1128 (P. aeruginosa DSMZ1128 [11])","MIC pH5.5, 320 mM NaCl, S. aureus 11729 [12] [μg/ml]","MIC pH5.5, S. aureus 11729 [12] [μg/ml]","MIC at pH 7, S. aureus DSMZ11729 [12] [μg/ml]","MBC following MIC at pH 7, S. epidermidis ATCC12228 (S. epidermidis ATCC12228 [13]) [μg/ml]","MIC at pH 7, P. aeruginosa DSMZ1128 (P. aeruginosa DSMZ1128 [14]) [μg/ml]","MIC at pH 7, P. aeruginosa D5MZ1299 (P. aeruginosa DSMZ1299 [15]) [μg/ml]","MIC at pH 7, S. epidermidis ATCC12228 (S. epidermidis ATCC12228 [16]) [μg/ml]","MBC at pH5.5, S. aureus 11729 [17] [μg/ml]","MBC pH5.5, 320 mM NaCl, S. aureus 11729 [17] [μg/ml]","MBC following MIC at pH 7, S. aureus DSMZ11729 [17] [μg/ml]","MBC following MIC at pH 7, S. aureus ATCC25923 (S. aureus ATCC25923 [18]) [μg/ml]",also measured
"N=C(N)NCCC[C@@H](N)C(=O)N[C@H](CCCNC(=N)N)C(=O)N[C@H](CCCNC(=N)N)C(=O)N[C@H](CCCNC(=N)N)C(=O)N[C@H](CCCNC(=N)N)C(=O)N[C@H](CCCNC(=N)N)C(=O)N[C@H](CCCNC(=N)N)C(=O)N[C@H](CCCNC(=N)N)C(=O)N[C@H](CCCNC(=N)N)C(=O)N[C@H](CCCNC(=N)N)C(=O)N[C@H](CCCNC(=N)N)C(=O)N[C@H](CCCNC(=N)N)C(=O)N[C@H](CCCNC(=N)N)C(=O)O [NP339, dRdRdRdRdRdRdRdRdRdRdRdRdR]",,,,,,,,,,,,,,,,,,,,,"MIC, P. aeruginosa strains (7) [1]: 62.5 µg/mL; Persisters, active concentration, P. aeruginosa strains (7) [2]: 625 µg/mL; concentration that inhibits the viability of P. aeruginosa BAA-47 (PAO1) persister cells [3]: 625 µg/mL; MBEC against biofilms of 3 Staphylococcus species ([4]; FIG. 5, range over 3 species): 156 to 625 µg/mL; MBEC, Staphylococcus spp (4) ([4]; agent alone, biofilm cells): 156 to 625 µg/mL; MBEC, P. aeruginosa strains (7) [5]: >5,000 μg/ml; MIC, Staphylococcus spp (4) (Staphylococcus spp (4)): 4 to 128 µg/mL; MBEC, P. aeruginosa BAA-47 (PAO1); highest dose tested not sufficient to inhibit 100% of the biofilm cells [6]: > 5 mg/mL"
"HHPRRKPRRPKRRHH [NP441, HHPRRKPRRPKRRHH]",>500 μg/ml,>500,>500,>500,>500,>500,>500,>500,>500 μg/ml,>500,>500,>500,>500,>500,>500,>500,>500,>500,>500,>500,"Exp#3, P. aeruginosa DSMZ1299 (quantity not clearly headed) (P. aeruginosa DSMZ1299 [15]; Exp#3): >500 µg/mL"
"KKFPWRLRLRYGRR [NP445, KKFPWRLRLRYGRR]",125 μg/ml,>500,>500,250,500,>500,>500,31.25,250 μg/ml,>500,>500,500,62.5,62.5,31.25,<7.8,>500,>500,>500,>500,
"RRRFRFFFRFRRR [NP432, RRRFRFFFRFRRR]",32 (2) μg/ml,125,>500,250,31.25,125,125,15.6,250 (2) μg/ml,>500,>500,62.5,16,62.5,15.6,<7.8,>500,>500,500,250,
